Experimental findings from ChEMBL document CHEMBL5226330, “Synthesis of Oxazino[4,3-a]indoles and biological applications” (2021) are described below.

This assay is filed under the species Mus musculus. Put plainly: Antidepressant activity against […] Swiss albino mouse model assessed as […]. Format: functional.

`CNCCC1(C)OCCn2c1c(C)c1ccccc12.Cl` (stereo not drawn): the ED50 worked out at 0.5 mg/kg.

In the case of `Cc1c2n(c3ccccc13)CCOC2(C)CCN(C)C.Cl` (stereo not drawn), the ED50 is 2 mg/kg.

For the molecule `Cc1c2n(c3ccccc13)CCOC2(C)CCCN(C)C.Cl` (stereo not drawn), the ED50 was determined as 2.9 mg/kg.
